Data reported in the Deep4Chem optical property database.
Values belong to the molecule of their own block, whether it stands above or below them.

Test: solvent given as SMILES

SMILES: Fc1c(F)c(-n2c3ccccc3c3ccccc32)c(F)c(F)c1/C=C/C(=C(c1ccccc1)c1ccccc1)c1ccccc1
- absorption maximum (in Cc1ccccc1): 360 nm

SMILES: Cc1cc(-c2nc(-c3ccccc3)nc(-c3ccccc3)n2)cc(C)c1N1c2ccccc2CCc2ccccc21
- absorption maximum (in Cc1ccccc1): 392.74 nm

SMILES: COc1ccccc1-c1c2ccc(=[N+]3CCCCC3)cc-2oc2cc(N3CCCCC3)ccc12
- absorption maximum (in CCO): 564 nm
- absorption maximum (in ClCCl): 566 nm

SMILES: O=S1(=O)C(c2ccsc2)=C(c2ccsc2)c2ccccc21
- absorption maximum (in C1CCOC1): 350 nm

SMILES: N#Cc1ccc(N)c(/C=C/C(F)(F)F)c1
- absorption maximum (in C1CCOC1): 348 nm

SMILES: c1ccc(N(c2ccccc2)c2cc3c4c(c2)N(c2ccccc2)c2cc5c(cc2B4c2ccccc2N3c2ccccc2)B2c3ccccc3N(c3ccccc3)c3cc(N(c4ccccc4)c4ccccc4)cc(c32)N5c2ccccc2)cc1
- absorption maximum (in Cc1ccccc1): 457 nm

SMILES: CCCCCCc1ccc2c(/C=N/c3cc(/N=C/c4c(O)ccc5cc(CCCCCC)ccc45)cc(/N=C/c4c(O)ccc5cc(CCCCCC)ccc45)c3)c(O)ccc2c1
- absorption maximum (in C1CCOC1): 477 nm
- absorption maximum (in CC#N): 474 nm
- absorption maximum (in Cc1ccccc1): 480 nm
- absorption maximum (in ClCCl): 479 nm

SMILES: C(=C\c1ccccc1)/c1ccccc1
- absorption maximum (in CC#N): 307 nm

SMILES: Oc1ccccc1
- absorption maximum (in C1CCCCC1): 265.96 nm

SMILES: CCOC(=O)C1=CNC=C(C(=O)OCC)C1c1ccccc1
- absorption maximum (in C1CCOC1): 355 nm
- absorption maximum (in CO): 355 nm

SMILES: Clc1cccc(-c2nc3sc4ccccc4c3s2)c1
- absorption maximum (in CS(C)=O): 351 nm

SMILES: CC(C)(C)c1ccc2c(c1)c1cc(C(C)(C)C)ccc1n2-c1ccc(-c2nc3c(C#N)ccc(C#N)c3nc2-c2ccc(-n3c4ccc(C(C)(C)C)cc4c4cc(C(C)(C)C)ccc43)cc2)cc1
- absorption maximum (in Cc1ccccc1): 467 nm

SMILES: CCN(CC)c1c2ccc(=[N+]3CCCCC3)cc-2oc2cc(N3CCCCC3)ccc12
- absorption maximum (in ClCCl): 499 nm

SMILES: Clc1ccccc1-c1nc2sc3ccccc3c2s1
- absorption maximum (in CS(C)=O): 347 nm

SMILES: O=C1O/C(=C\c2ccccc2)c2ccccc21
- absorption maximum (in CC#N): 335 nm

SMILES: CCN(CC)c1ccc2cc(-c3cn4cc(C)ccc4n3)c(=O)oc2c1
- absorption maximum (in ClC(Cl)Cl): 424 nm

SMILES: Cn1c2ccccc2c(=O)c2ccccc21
- absorption maximum (in CS(C)=O): 403 nm
- absorption maximum (in O): 394 nm

SMILES: O=c1oc2ccc3ccccc3c2nc1-c1ccc(Cl)cc1
- absorption maximum (in c1ccccc1): 404 nm

SMILES: Oc1ccccc1-c1nc(-c2ccccc2)c2ccccn12
- absorption maximum (in C1CCCCC1): 340 nm
- absorption maximum (in CC#N): 343 nm
- absorption maximum (in CO): 299 nm
- absorption maximum (in ClCCl): 345 nm
- absorption maximum (in O): 299 nm

SMILES: FC(F)(F)c1ccc(-c2nc(-c3ccc(C(F)(F)F)cc3)n3ccccc23)cc1
- absorption maximum (in ClC(Cl)Cl): 325 nm

SMILES: CC[N+]1(CC)CN2C(=N1)C(C(=O)O)=Cc1cc(OC)c(OC)cc12
- absorption maximum (in O): 392 nm

SMILES: [NH3+]c1cc([NH3+])cc(-c2[nH+]c3ccccc3s2)c1
- absorption maximum (in O): 328 nm

SMILES: Cc1nnc(-c2cc(-c3nnc(C)o3)c(-n3c4ccccc4c4ccccc43)cc2-n2c3ccccc3c3ccccc32)o1
- absorption maximum (in Cc1ccccc1): 359 nm

SMILES: CC(C)=N[O-]
- absorption maximum (in CCO): 265 nm

SMILES: CCCCCCC(CCCCCC)N1C(=O)c2cccc3c(-c4ccc(OC)cc4)ccc(c23)C1=O
- absorption maximum (in CCCCCC): 354.2 nm
- absorption maximum (in CCCCCCCCCCCCCC): 356.4 nm
- absorption maximum (in CCCCCCCCCCCO): 365.6 nm
- absorption maximum (in CCCCO): 366.2 nm
- absorption maximum (in CN(C)C=O): 368 nm
- absorption maximum (in Cc1ccccc1): 364.2 nm
- absorption maximum (in ClC(Cl)Cl): 364.8 nm

SMILES: c1ccc2c(-c3cc(-c4nccs4)nc(-c4nccs4)c3)cccc2c1
- absorption maximum (in CC#N): 324 nm
- absorption maximum (in CCCCCC): 325 nm
- absorption maximum (in CO): 325 nm
- absorption maximum (in ClC(Cl)Cl): 330 nm

SMILES: Cc1ccc(-n2cccc2)cc1
- absorption maximum (in CC#N): 254 nm
- absorption maximum (in CCCCCC): 254 nm

SMILES: C1=Nc2cccc3cccc(c23)N1
- absorption maximum (in CC#N): 329 nm
- absorption maximum (in CO): 329 nm
- absorption maximum (in CS(C)=O): 333 nm
- absorption maximum (in Cc1ccccc1): 331 nm

SMILES: CCn1c2ccccc2c2cc(C#Cc3cc(C#Cc4ccc5c(c4)c4ccccc4n5CC)nc(S(C)(=O)=O)n3)ccc21
- absorption maximum (in C1CCOC1): 408 nm
- absorption maximum (in CCOC(C)=O): 405 nm
- absorption maximum (in CN(C)C=O): 415 nm
- absorption maximum (in Cc1ccccc1): 411 nm
- absorption maximum (in ClCCl): 417 nm

SMILES: CCCCOc1ccc(-c2cc3c(o2)c(-c2ccc(OCCCC)cc2)c2n3[B-](F)(F)[N+]3=Cc4c(-c5ccc(OCCCC)cc5)c5oc(-c6ccc(OCCCC)cc6)cc5n4[B-](F)(F)[N+]3=C2)cc1
- absorption maximum (in C1CCOC1): 619 nm
- absorption maximum (in CN(C)C=O): 620 nm
- absorption maximum (in CS(C)=O): 625 nm
- absorption maximum (in Cc1ccccc1): 626 nm
- absorption maximum (in ClC(Cl)Cl): 624 nm
- absorption maximum (in ClCCl): 622 nm

SMILES: CC(C)(C)c1cc2ccc3c(-c4ccc(N(c5ccccc5)c5ccccc5)cc4)ccc4c5nc6cc(C#N)c(C#N)cc6nc5c(c1)c2c34
- absorption maximum (in Cc1ccccc1): 500 nm

SMILES: CCCCCCOc1cc(C=C(C#N)C#N)c(OCCCCCC)cc1C=C(C#N)C#N
- absorption maximum (in ClCCl): 477 nm

SMILES: COCCC1=Cc2nc1ccc1[nH]c(cc1CCOC)c1nc(c(O)cc3[nH]c2cc3CCOC)C(CCOC)=C1
- absorption maximum (in Cc1ccccc1): 680 nm

SMILES: CCc1ccc(-c2nc(-c3ccc(-n4c5ccccc5c5ccccc54)cc3)cc(-c3ccc(-n4c5ccccc5c5ccccc54)cc3)n2)cc1
- absorption maximum (in C1CCOC1): 343 nm
- absorption maximum (in CN(C)C=O): 344 nm
- absorption maximum (in Cc1ccccc1): 354 nm
- absorption maximum (in ClC(Cl)Cl): 344 nm

Now from value to molecule:

- absorption maximum (in C1COCCO1): 480 nm
- absorption maximum (in CC(C)O): 490 nm
- absorption maximum (in CCCCCCCCO): 489 nm
- absorption maximum (in CCCCO): 491 nm
- absorption maximum (in CCCO): 495 nm
- absorption maximum (in CCO): 498 nm
- absorption maximum (in CO): 498 nm
- absorption maximum (in CS(C)=O): 491 nm
- absorption maximum (in ClC(Cl)Cl): 500 nm
- absorption maximum (in ClCCl): 500 nm
SMILES: CN(C)c1ccc(/C=C/c2cc[n+](Cc3cc(C[n+]4ccc(/C=C/c5ccc(N(C)C)cc5)cc4)cc(C[n+]4ccc(/C=C/c5ccc(N(C)C)cc5)cc4)c3)cc2)cc1

- absorption maximum (in C1COCCO1): 458 nm
- absorption maximum (in CC#N): 462 nm
- absorption maximum (in ClCCl): 468 nm
SMILES: CCCCN(CCCC)c1ccc(/C=C/c2ccc3nc(-c4ccccc4)c(/C=C/c4ccc(N(C)C)cc4)nc3c2)cc1

- absorption maximum (in ClCCl): 488 nm
SMILES: CCCc1ccc(C#Cc2cc(C#Cc3ccc(N(C)C)cc3)c3ccc4c(C#Cc5ccc(N(C)C)cc5)cc(C#Cc5ccc(CCC)cc5)c5ccc2c3c54)cc1

- absorption maximum (in ClCCl): 615 nm
SMILES: COc1ccc(C#Cc2c3cc4ccccc4cc3c(C#Cc3ccc(OC)cc3)c3cc4sc(C)cc4cc23)cc1

- absorption maximum (in ClCCl): 427 nm
SMILES: CCCCCCCCCCCCN1C(=O)c2c(c3ccc4cc(-c5ccc(C(F)(F)F)cc5)c(OC)cc4c3c3c2ccc2cc(-c4ccc(C(F)(F)F)cc4)c(OC)cc23)C1=O

- absorption maximum (in CC#N): 606 nm
- absorption maximum (in CS(C)=O): 616 nm
- absorption maximum (in ClC(Cl)Cl): 619 nm
SMILES: C#CCn1c2ccccc2c2cc(/C=C/c3c(Cl)c(C)c4n3[B-](F)(F)[N+]3=C(C)C(Cl)=C(C)C3=C4c3ccc(I)cc3)ccc21

- absorption maximum (in CC#N): 399 nm
SMILES: COc1ccc(-c2csc(/C(C#N)=C/c3ccc([N+](=O)[O-])cc3)n2)cc1

- absorption maximum (in ClCCl): 329 nm
SMILES: CCOC(=O)C1=C(C(=O)OCC)C2(c3ccccc3-c3c(Br)cc(Br)cc32)C2(/C=C/c3ccc(Cl)cc3)c3cc(OC)c(OC)cc3CCN12 (centres undefined)

- absorption maximum (in CO): 754 nm
SMILES: CC1(C)C2=[N+](CCCCCC(=O)NCNC(=O)CCCCCN3/C(=C/C=C/C=C/C=C/2)C(C)(C)c2cc(S(=O)(=O)[O-])ccc23)c2ccc(S(=O)(=O)[O-])cc21

- absorption maximum (in C1COCCO1): 415 nm
SMILES: CCN(CC)c1ccc(Nc2cc3oc(-c4ccc(C#N)cc4)nc3c3ccccc23)c(C)c1

- absorption maximum (in C1CCCCC1): 334 nm
- absorption maximum (in C1COCCO1): 336 nm
- absorption maximum (in CC#N): 328 nm
- absorption maximum (in CC(C)(C)O): 338 nm
- absorption maximum (in CC(C)O): 338 nm
- absorption maximum (in CCCCCC): 333 nm
- absorption maximum (in CCCCO): 340 nm
- absorption maximum (in CCOC(C)=O): 334 nm
- absorption maximum (in CN(C)C=O): 338 nm
- absorption maximum (in CO): 343 nm
- absorption maximum (in ClCCl): 331 nm
- absorption maximum (in O): 330 nm
SMILES: COc1ccc(C(=O)/C=C2\C(=O)Nc3ccccc32)c(OC)c1

- absorption maximum (in ClCCl): 688 nm
SMILES: COc1ccc(C2=C3C(/C=C/c4cc(OC)c(OC)c(OC)c4)=C(C=O)C(/C=C/c4cc(OC)c(OC)c(OC)c4)=[N+]3[B-](F)(F)n3c(/C=C/c4cc(OC)c(OC)c(OC)c4)c(C=O)c(C=Cc4cc(OC)c(OC)c(OC)c4)c32)cc1

- absorption maximum (in ClC(Cl)Cl): 688 nm
- absorption maximum (in ClCCl): 688 nm
SMILES: COc1ccc(C2=[N+]3C(=Nc4c(-c5ccccc5)cc(-c5ccc(OC)cc5)n4[B-]3(F)F)C(c3ccccc3)=C2)cc1

- absorption maximum (in CO): 354 nm
SMILES: COc1ccc(-c2nc(-c3ccc(C#N)cc3)[nH]c2-c2ccc(OC)cc2)cc1

- absorption maximum (in O): 635 nm
SMILES: Cc1ccccc1C1=C2C=CC(=[N+](C)C)C=[C]2[Ge]([CH3])([CH3])[c]2cc(N(C)C)ccc21

- absorption maximum (in ClCCl): 689 nm
SMILES: CCN(CC)c1ccc2c(-c3ccccc3C(=O)O)c3c([o+]c2c1)/C(=C/c1ccc(N(C)C)cc1)CCC3

- absorption maximum (in CCCCCC): 611 nm
- absorption maximum (in CCCCCCCCO): 615 nm
- absorption maximum (in CCOC(C)=O): 610 nm
- absorption maximum (in CN(C)C=O): 615 nm
- absorption maximum (in ClCCl): 616 nm
SMILES: COc1ccc(C#Cc2c3ccccc3c3n2[B-](F)(F)[N+]2=C(C)C=C(C)C2=C3)cc1

- absorption maximum (in ClC(Cl)Cl): 408.16 nm
SMILES: CCCCCCn1c2cc(/C=C/c3cccs3)ccc2c2ccc(/C=C/c3cccs3)cc21

- absorption maximum (in ClCCl): 339 nm
SMILES: COc1ccc(/C=C/c2cc(/C=C/c3ccc(OC)cc3)nc(/C=C/c3ccc(OC)cc3)n2)cc1

- absorption maximum (in C1CCCCC1): 330 nm
- absorption maximum (in CO): 340 nm
SMILES: COc1ccc(/C=C/c2nc3ccccc3o2)cc1

- absorption maximum (in CCCCCC): 420 nm
SMILES: Cc1cc(C)c(B(c2cc3c4c(c(B(c5c(C)cc(C)cc5C)c5c(C)cc(C)cc5C)cc5c4c2CCC5)CCC3)c2c(C)cc(C)cc2C)c(C)c1

- absorption maximum (in ClCCl): 418 nm
SMILES: Cc1cc(-c2ccc(N(c3ccccc3)c3ccccc3)cc2)c2nsnc2c1-c1ccc(C(C)(C)C)cc1

- absorption maximum (in ClCCl): 418 nm
SMILES: COc1ccc2cc(/C=C/c3nc(/C=C/c4ccc(N(C)C)cc4)cc(/C=C/c4ccc(N(C)C)cc4)n3)ccc2c1

- absorption maximum (in CCO): 540 nm
- absorption maximum (in O): 548 nm
SMILES: CN(C)c1ccc2c(-c3ccc(C(=O)[O-])cc3C(=O)[O-])c3ccc(=[N+](C)C)cc-3oc2c1
